Reference: ChEMBL document CHEMBL4020773, “Identification of quinazoline based inhibitors of IRAK4 for the treatment of inflammation” (Bioorg Med Chem Lett, 2017)

Key:
[1] = biological target: T1, Interleukin-1 receptor-associated kinase 4 (Homo sapiens) (UniProt Q9NWZ3); assay: Inhibition of IRAK4 in human whole blood assessed as reduction in R848-stimulated TNF alpha production preincubated for 30 mins followed by R848 addition measured after 5 hrs
T1 sequence (whole entry): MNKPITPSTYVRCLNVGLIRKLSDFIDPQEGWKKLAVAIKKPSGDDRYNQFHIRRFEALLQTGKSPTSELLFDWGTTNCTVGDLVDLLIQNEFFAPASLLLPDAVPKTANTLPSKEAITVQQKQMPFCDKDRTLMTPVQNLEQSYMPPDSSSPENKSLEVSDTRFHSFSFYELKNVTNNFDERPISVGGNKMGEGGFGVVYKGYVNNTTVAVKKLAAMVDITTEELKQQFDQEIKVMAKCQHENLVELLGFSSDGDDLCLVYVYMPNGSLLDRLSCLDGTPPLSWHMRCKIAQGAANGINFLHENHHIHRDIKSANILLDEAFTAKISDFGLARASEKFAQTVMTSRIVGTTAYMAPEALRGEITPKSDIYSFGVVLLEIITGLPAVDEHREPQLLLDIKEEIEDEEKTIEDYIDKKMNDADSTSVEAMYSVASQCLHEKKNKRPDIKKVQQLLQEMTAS

[2] = Apparent permeability in MDCK cells; format: ADME, cell-based, Canis lupus familiaris; conditions: dog
[3] = biological target: T2, Interleukin-1 receptor-associated kinase 4 (Homo sapiens, UniProt Q9NWZ3); assay: Inhibition of recombinant human full length GST tagged IRAK4 expressed in baculovirus infected Sf9 cells using RP7030 peptide as substrate after 30 mins in presence of ATP by fluorescence polarization assay
T2 sequence (Q9NWZ3 whole entry): T1 sequence (whole entry)

[4] = system: Rattus norvegicus; assay: Terminal plasma concentration in Lewis rat at 3 mg/kg, po administered once daily; format: ADME, organism-based; conditions: in vivo, read-out: Cp(T)
[5] = system: Rattus norvegicus; assay: In vivo inhibition of IRAK4 in Lewis rat assessed as reduction in R848-stimulated serum IL-6 secretion at 3 mg/kg, po administered once daily pretreated for 1 hr followed by R848 challenge measured after 1.5 hrs relative to control; format: functional
[6] = biological target: T3, Interleukin-1 receptor-associated kinase 4 (Rattus norvegicus, UniProt D4A7K4); assay: Inhibition of IRAK4 in Lewis rat whole blood assessed as reduction in R848-stimulated TNF alpha production after 4 hrs
T3 sequence (D4A7K4 whole entry): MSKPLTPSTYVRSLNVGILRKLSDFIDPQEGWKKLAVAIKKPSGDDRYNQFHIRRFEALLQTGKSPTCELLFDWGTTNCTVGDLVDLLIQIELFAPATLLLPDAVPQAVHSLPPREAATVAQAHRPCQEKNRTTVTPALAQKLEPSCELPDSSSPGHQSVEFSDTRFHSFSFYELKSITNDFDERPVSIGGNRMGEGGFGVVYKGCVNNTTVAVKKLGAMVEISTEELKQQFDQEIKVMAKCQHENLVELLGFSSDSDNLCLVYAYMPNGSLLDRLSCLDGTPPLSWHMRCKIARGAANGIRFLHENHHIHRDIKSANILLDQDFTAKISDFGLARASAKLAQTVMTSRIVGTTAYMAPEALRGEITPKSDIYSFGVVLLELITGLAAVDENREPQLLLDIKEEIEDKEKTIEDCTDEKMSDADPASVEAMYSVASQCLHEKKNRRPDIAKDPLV

[7] = system: Rattus norvegicus; assay: In vivo inhibition of IRAK4 in Lewis rat assessed as reduction in R848-stimulated serum IL-6 secretion at 10 mg/kg, po administered once daily pretreated for 1 hr followed by R848 challenge measured after 1.5 hrs relative to control; format: functional
[8] = Clearance in rat; format: ADME; conditions: in vivo
[9] = system: Rattus norvegicus; assay: In vivo inhibition of IRAK4 in Lewis rat assessed as reduction in R848-stimulated serum IL-6 secretion at 100 mg/kg, po administered once daily pretreated for 1 hr followed by R848 challenge measured after 1.5 hrs relative to control; format: functional
[10] = system: Rattus norvegicus; assay: In vivo inhibition of IRAK4 in Lewis rat assessed as reduction in R848-stimulated serum IL-6 secretion at 30 mg/kg, po administered once daily pretreated for 1 hr followed by R848 challenge measured after 1.5 hrs relative to control; format: functional
[11] = system: Rattus norvegicus; assay: Terminal plasma concentration in Lewis rat at 30 mg/kg, po administered once daily; format: ADME, organism-based; conditions: in vivo, read-out: Cp(T)
[12] = system: Rattus norvegicus; assay: Terminal plasma concentration in Lewis rat at 100 mg/kg, po administered once daily; format: ADME, organism-based; conditions: in vivo, read-out: Cp(T)
[13] = Half life in rat; format: ADME; conditions: in vivo
[14] = Oral bioavailability in rat; format: ADME, organism-based; conditions: in vivo
[15] = system: Rattus norvegicus; assay: In-vivo inhibition of IRAK4 in po dosed Lewis rat assessed as reduction in R848-stimulated serum IL-6 secretion administered once daily pretreated for 1 hr followed by R848 challenge measured after 1.5 hrs; format: functional, organism-based
[16] = system: Rattus norvegicus; assay: Terminal plasma concentration in Lewis rat at 10 mg/kg, po administered once daily; format: ADME, organism-based; conditions: in vivo, read-out: Cp(T)

Structure (SMILES)	IC50 [1] [nM]	IC50 [3] [nM]	other results
Cc1ccc2ncnc(N[C@H]3CC[C@H](N(C)C)CC3)c2c1	1800		
CNCCCCc1c(-c2cc(C)cc(C)c2)cnc2ccc(-c3cncc(O)c3)cc12			Papp [2]: 11 ×10⁻⁶ cm/s
CC(C)c1ccc2ncnc(N[C@H]3CC[C@H](N(C)C)CC3)c2c1	1100	16	
CN(C)[C@H]1CC[C@H](Nc2ncnc3cc(F)c(F)cc23)CC1	> 10000		
C[C@@H]1C[C@H]2[C@@H]3CCC4=CC(=O)C=C[C@]4(C)[C@@]3(F)[C@@H](O)C[C@]2(C)[C@@]1(O)C(=O)CO [DEXAMETHASONE]			concentration [4]: 10 µM; inhibition in vivo at 3 mg/kg [5]: 86%
COc1ccc2ncnc(N[C@H]3CC[C@H](N(C)C)CC3)c2c1	1100	16	
CN(C)[C@H]1CC[C@H](Nc2ncnc3ccc(C4CC4)cc23)CC1	2500	12	
N#Cc1ccc2ncnc(N[C@H]3CC[C@H](N)CC3)c2c1	1400	32	
CCc1ccc2ncnc(N[C@H]3CC[C@H](N(C)C)CC3)c2c1	1200	17	
CN(C)[C@H]1CC[C@H](Oc2ncnc3ccc([N+](=O)[O-])cc23)CC1	2000	58	
CN(C)[C@H]1CC[C@H](Nc2ncnc3ccc(C#N)cc23)CC1	770		EC50 [6]: 1700 nM
N#Cc1ccc2ncnc(N[C@H]3CC[C@H](N4CCOCC4)CC3)c2c1	300	7	concentration [4]: 5.7 µM; EC50 [6]: 2300 nM; inhibition in vivo at 10 mg/kg [7]: 2%; clearance [8]: 22 mL/min/kg; Papp [2]: 41 ×10⁻⁶ cm/s; inhibition in vivo at 100 mg/kg [9]: 91%; inhibition in vivo at 30 mg/kg [10]: 57%; concentration [11]: 54 µM; concentration [12]: 112 µM; half-life [13]: 1.3 h; bioavailability [14]: 73%; inhibition [15]: Dose-dependent effect; concentration [16]: 19 µM

Continued by falling IC50 [1], values first:

IC50 [1] [nM]	IC50 [3] [nM]	Structure (SMILES)	other results
620	35	N#Cc1ccc2ncnc(N[C@H]3CC[C@H](N4CCC4)CC3)c2c1	
620		CN(C)[C@H]1CC[C@H](Nc2ncnc3ccc(C(F)(F)F)cc23)CC1	
330		CS(=O)(=O)N1CCN([C@H]2CC[C@H](Nc3ncnc4ccc(C#N)cc34)CC2)CC1	
300		N#Cc1ccc2ncnc(N[C@H]3CC[C@H](N4CCCC4)CC3)c2c1	
290	10	CN(C)[C@H]1CC[C@H](Nc2ncnc3ccc(Br)cc23)CC1	
274		CN1CCN([C@H]2CC[C@H](Nc3ncnc4ccc(C#N)cc34)CC2)CC1	
200		N#Cc1ccc2ncnc(N[C@H]3CC[C@H](N4CCC(F)(F)CC4)CC3)c2c1	
100		N#Cc1ccc2ncnc(N[C@H]3CC[C@H](N4CCC(F)CC4)CC3)c2c1	
